Test results as given in US6974816B2, “Combination for the treatment of endothelial damage” (Licentia Ltd., priority 2001, dated 2005).
Where two headings read alike, the source gives them in different places.

Key:
[1] = system: left anterior descending coronary artery injured by overdilatation and denudation; conditions: after PTCA, versus controls without RPR101511A; cited from earlier work
[2] = rabbit, in vivo
From the text: (§2) The cohort groups are also characterized with regard to animal weights, weight changes, extent of balloon injury (IEL damage), blood lipid profiles and basic hematologic parameters.

[3] = system: CD31-positive cells (endothelium) of the transfected vessel segment; assay: Luminal endothelial cell coverage (CD31-positive cells) in transverse vessel sections; assay type: in vivo, New Zealand White rabbits
Procedure: Animals from the 8 groups are also analyzed with regard to luminal endothelial cell coverage from transverse vessel sections. This variable is determined by analysis of the percentage of the luminal surface that is covered by CD31-positive cells (CD31 is an endothelium-specific antibody from DAKO).
To investigate the mechanism underlying the observed beneficial effect of the combination therapy, the extent of endothelialization and the number of smooth muscle cells at the transfected vessel segment are analyzed (see Table 1). At the three-week time point, no difference in endothelial cell coverage is observed between the groups, although a trend towards an increased endothelial cell coverage in the combination group is seen (P=0.088). However, at the six-week time point, both groups that have received VEGF-C gene transfer display an increase in endotheilialization as compared to the control group. […] As shown in Table 4 (see below), the cell number is reduced by 52% (P<0.05) in the combination group as compared to control animal.
Three hours before euthanasia, animals receive an i.v. injection of 50 mg 5-bromo-2′-deoxyuridine (BrdU; Zymed Laboratories, San Francisco, Calif., USA) dissolved in 40% ethanol. After euthanasia, the transferred vessel segment is removed, flushed gently with saline, and divided into 4 parts of equal length. […]

arterial intima = conditions: after re-injury of the arterial intima; cited from earlier work
[4] = for Plasma STI571 concentration, day 3 peak: 10 mg/kg/d oral in two daily doses; for Plasma STI571 concentration, day 3 peak / Plasma STI571 concentration, day 10 peak / Plasma STI571 concentration, day 21 peak: 2 h after drug delivery; for Plasma STI571 concentration, day 42: 3 weeks after last dose; for Plasma STI571 concentration, day 3 nadir / Plasma STI571 concentration, day 10 nadir / Plasma STI571 concentration, day 21 nadir: immediately before next administration
Procedure: The drug, or control (=sterile water) is administered with an oro-gastric sond on trained, unsedated animals 1 h before the gene transfer and is repeated every 12 h thereafter for the following three weeks.
Blood sampling, […] with catheterizations or euthanasia, is performed under slight Fluanisone/Fentanyl sedation. […] The specimen is stored in heparinized tubes shielded from light and plasma is isolated by centrifugation within 2 h and stored at −70° C. STI concentration is determined by high-performance liquid chromatography
For HPLC, plasma proteins are precipitated by the addition of an equal volume of acetonitrile. After 20 to 30 min at room temperature, the precipitated proteins are removed by centrifugation (10,000 g, 5 min) and the supernatants are analyzed by reversed-phase HPLC.
HPLC is performed on Merck-Hitachi LaChrom® equipment. 100 μl of the supernatants are injected onto a Nucleosil® 100-5 C18 column (C-18 modified silica Gel, Macherey & Nagel) protected by a 20 mm guard column of the same material. The sample is eluted with a gradient of acetonitrile in water at a flow rate of 1 ml/min; after 5 min at 10% v/v acetonitrile, the concentration of acetonitrile is increased to 75% v/v over a period of 15 min. The column is prepared for the next sample by washing for 5 min with 75% v/v acetonitrile, returning to 10% acetonitrile over 5 min and 5 min reequilibration. The mobile phase contains 0.05% v/v trifluoroacetic acid. The eluent is monitored using UV absorbance at a wavelength of 265 nm. […] The concentration of the compound is determined by the external standard method using peak heights. […] The calibration standards are processed as above.

[5] = Complete blood count (hematological parameters); conditions: 3-week endpoint; mean ± SEM
From the text: as §2
(§3) Blood samples are drawn for complete blood count at the time of euthanasia from randomly selected animals (n=3/group) in the 3-week endpoint cohort.

[6] = system: intimal and medial smooth muscle cells; assay: Intimal and medial smooth muscle cell number; assay type: in vivo, New Zealand White rabbits; conditions: 6-week endpoint; mean ± SEM
Procedure: (§1) Three hours before euthanasia, animals receive an i.v. injection of 50 mg 5-bromo-2′-deoxyuridine (BrdU; Zymed Laboratories, San Francisco, Calif., USA) dissolved in 40% ethanol. After euthanasia, the transferred vessel segment is removed, flushed gently with saline, and divided into 4 parts of equal length. The proximal part is snap-frozen in liquid nitrogen and stored at −70° C. The next part is immersion-fixed in 4% paraformaldehyde/15% sucrose (pH 7.4) for 4 h, rinsed in 15% sucrose (pH 7.4) and embedded in paraffin. The 2nd most distal part is fixed in 70% ethanol overnight and embedded in paraffin. The distal part is fixed in […]/PBS (pH 7.4) for 10 minutes, rinsed in PBS, embedded in OCT compound (Miles) and stored at −70° C. The distal segments from 3 week end-point animals are stained for β-galactosidase activity in X-Gal staining solution at +37° C. for 16 h, followed by fixation similar to that for the second segment. Paraffin sections are used for the detection of endothelium (CD31, DAKO, 1:50), smooth muscle cells (HHF, DAKO, 1:50), macrophages (RAM-11, DAKO, 1:50), and BrdU positive cells (Bu20a, DAKO, 1:50). Controls for immunostainings include incubations with class- and species-matched immunoglobulins and omission of primary antibodies. Morphometry is performed with Leica Q5001lW software with a stereomicroscope connected to a digital camera (Leica).

[7] = rabbit, in vivo; remark: listed apart in the source
From the text: as §2, §3

[8] = system: intimal and medial smooth muscle cells; assay: BrdU labelling of dividing smooth muscle cells; assay type: in vivo, New Zealand White rabbits; conditions: 6-week endpoint; mean ± SEM
Procedure: as §1

COc1cc2ncc(-c3ccsc3)nc2cc1OC.Cl [RPR101511A, 6,7-di-methoxy-2-thiophen-3-yl-quinoxaline hydrochloride]
total intima/media ratio [1]: significant decrease

Cc1ccc(NC(=O)c2ccc(CN3CCN(C)CC3)cc2)cc1Nc1nccc(-c2cccnc2)n1 [STI571, N-{5-[4-(4-methyl-piperazino-methyl)-benzoylamido]-2-methylphenyl}-4-(3-pyridyl)-2-pyrimidine-amine]
weight [2]: 2462 ± 90 g
CD31 positive cell coverage (% of luminal circumference), mean ([3]; 3-week endpoint): 33.7 % of luminal circumference
CD31 positive cell coverage (% of luminal circumference), mean ([3]; 6-week endpoint): 60.2 % of luminal circumference
smooth muscle proliferation and lesion formation (arterial intima): inhibit smooth muscle proliferation and leasion formation
Plasma STI571 concentration, day 3 peak ([4]; LacZ transfected animals): 10.27 ± 1.28 µM
Plasma STI571 concentration, day 42 ([4]; LacZ transfected animals): 0.04 ± 0.01 µM
Plasma STI571 concentration, day 10 peak ([4]; LacZ transfected animals): 16.63 ± 1.99 µM
Plasma STI571 concentration, day 21 peak ([4]; LacZ transfected animals): 13.18 ± 1.65 µM
Plasma STI571 concentration, day 3 nadir ([4]; LacZ transfected animals): 3.57 ± 0.74 µM
Plasma STI571 concentration, day 10 nadir ([4]; LacZ transfected animals): 5.16 ± 1.89 µM
Plasma STI571 concentration, day 21 nadir ([4]; LacZ transfected animals): 3.86 ± 1.02 µM
Plasma STI571 concentration, day 3 peak ([4]; VEGF-C transfected animals): 11.08 ± 1.10 µM
Plasma STI571 concentration, day 42 ([4]; VEGF-C transfected animals): 0.05 ± 0.01 µM
Plasma STI571 concentration, day 10 peak ([4]; VEGF-C transfected animals): 14.26 ± 1.26 µM
Plasma STI571 concentration, day 21 peak ([4]; VEGF-C transfected animals): 13.58 ± 1.95 µM
Plasma STI571 concentration, day 3 nadir ([4]; VEGF-C transfected animals): 3.11 ± 1.13 µM
Plasma STI571 concentration, day 10 nadir ([4]; VEGF-C transfected animals): 2.41 ± 0.43 µM
Plasma STI571 concentration, day 21 nadir ([4]; VEGF-C transfected animals): 2.95 ± 0.90 µM
Hb [5]: 103 ± 3.6 g/L
RBC count (× 10^12/l) [5]: 4.9 ± 0.2 × 10^12/l
WBC count (× 10^9/l) [5]: 4.6 ± 0.6 × 10^9/l
Number of SMC, intima [6]: 1471 ± 287
Number of SMC, media [6]: 2403 ± 381
Bands (%) [7]: 0 ± 0%
Hct (%) [7]: 31 ± 1.2%
MCH [7]: 21 ± 0.8 pg
MCV [7]: 64 ± 2.0 fL
basophiles (%) [7]: 0 ± 0%
eosinophiles (%) [7]: 3.4 ± 1.4%
lymphocytes (%) [7]: 67.4 ± 4.1%
monocytes (%) [7]: 2.4 ± 0.7%
neutrophils (%) [7]: 26.8 ± 2.7%
BrdU positive SMC (%), intima [8]: 0.57 ± 0.13%
BrdU positive SMC (%), media [8]: 0.39 ± 0.08%
